Experimental data reported in ChEMBL document CHEMBL1140580, “Synthesis and characterization of trans-4-(4-chlorophenyl)pyrrolidine-3-carboxamides of piperazinecyclohexanes as ligands for the melanocortin-4 receptor” (Bioorg Med Chem Lett, 2007).

Key:
[1] = biological target: T1, Melanocortin receptor 4 (Homo sapiens, UniProt P32245); assay: Displacement of […]NDPMSH from human MC4R expressed in HEK293 cells; assay type: cell-based
[2] = biological target: T1, Melanocortin receptor 4; assay: Agonist activity at MC4R assessed as stimulation of cAMP release relative to alphaMSH; assay type: functional
[3] = biological target: T1, Melanocortin receptor 4; assay: Agonist activity at MC4R assessed as stimulation of cAMP release; assay type: functional

T1 sequence (P32245 whole entry): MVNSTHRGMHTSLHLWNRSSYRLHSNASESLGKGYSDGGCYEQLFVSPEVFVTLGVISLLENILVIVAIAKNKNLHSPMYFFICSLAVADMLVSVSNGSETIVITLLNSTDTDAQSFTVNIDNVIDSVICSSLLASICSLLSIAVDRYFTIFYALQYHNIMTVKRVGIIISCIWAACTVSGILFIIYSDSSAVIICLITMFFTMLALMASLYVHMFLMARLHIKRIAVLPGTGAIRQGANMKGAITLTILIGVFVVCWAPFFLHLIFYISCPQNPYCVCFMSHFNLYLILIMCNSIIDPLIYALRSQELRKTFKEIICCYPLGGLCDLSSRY

| Compound | Ki [1] | Intrinsic activity [2] | EC50 [3] |
| --- | --- | --- | --- |
| CC(=O)N(Cc1ccncc1)CC1(N2CCN(C(=O)[C@H]3CN(C(C)C)C[C@@H]3c3ccc(Cl)cc3)CC2)CCCCC1 | 1500 nM |  |  |
| CC(C)N1C[C@H](C(=O)N2CCN(C3(CNCc4ccco4)CCCCC3)CC2)[C@@H](c2ccc(Cl)cc2)C1 | 38 nM | 32% | 570 nM |
| NCCC(=O)N1C[C@H](C(=O)N2CCN(C3(CNCc4ccccc4)CCCCC3)CC2)[C@@H](c2ccc(Cl)cc2)C1 | 110 nM | 9% |  |
| CCNC(=O)N1C[C@H](C(=O)N2CCN(C3(CNCc4ccncc4)CCCCC3)CC2)[C@@H](c2ccc(Cl)cc2)C1 | 4600 nM |  |  |
| COc1ccc(CN(CC(C)C)CC2(N3CCN(C(=O)[C@H]4CN(C(C)C)C[C@@H]4c4ccc(Cl)cc4)CC3)CCCCC2)cc1 | 1800 nM |  |  |
| CC(C)N1C[C@H](C(=O)N2CCN(C3(CNCc4ccoc4)CCCCC3)CC2)[C@@H](c2ccc(Cl)cc2)C1 | 75 nM | 53% | 480 nM |
| COc1ccc(CNCC2(N3CCN(C(=O)[C@H]4CN(C(C)C)C[C@@H]4c4ccc(Cl)cc4)CC3)CCCCC2)cc1 | 3.6 nM | 17% |  |
| COc1ccc(CN(C)CC2(N3CCN(C(=O)[C@H]4CN(C(C)C)C[C@@H]4c4ccc(Cl)cc4)CC3)CCCCC2)cc1 | 110 nM |  |  |
| O=C([C@H]1CN(C2CCCC2)C[C@@H]1c1ccc(Cl)cc1)N1CCN(C2(CNCc3ccccc3)CCCCC2)CC1 | 17 nM | 33% | 1800 nM |
| CC(C)N1C[C@H](C(=O)N2CCN(C3(CNS(=O)(=O)c4ccccc4)CCCCC3)CC2)[C@@H](c2ccc(Cl)cc2)C1 | 330 nM | 20% |  |
| CC(N)C(=O)N1C[C@H](C(=O)N2CCN(C3(CNCc4ccccc4)CCCCC3)CC2)[C@@H](c2ccc(Cl)cc2)C1 (stereo not given in full) | 430 nM | 3% |  |
| CC(C)C(N)C(=O)N1C[C@H](C(=O)N2CCN(C3(CNCc4ccccc4)CCCCC3)CC2)[C@@H](c2ccc(Cl)cc2)C1 (stereo not given in full) | 670 nM | 0% |  |
| O=C(C1CCCC1)N1C[C@H](C(=O)N2CCN(C3(CNCc4ccccc4)CCCCC3)CC2)[C@@H](c2ccc(Cl)cc2)C1 | 180 nM | 26% |  |
| CC(C)N1C[C@H](C(=O)N2CCN(C3(CNCc4ccc(N(C)C)cc4)CCCCC3)CC2)[C@@H](c2ccc(Cl)cc2)C1 | 65 nM | 16% | 1100 nM |
| CC(=O)N1C[C@H](C(=O)N2CCN(C3(CNCc4ccncc4)CCCCC3)CC2)[C@@H](c2ccc(Cl)cc2)C1 | 3000 nM |  |  |
| CC(C)N1C[C@H](C(=O)N2CCN(C3(CNCc4ccccc4F)CCCCC3)CC2)[C@@H](c2ccc(Cl)cc2)C1 | 12 nM | 48% | 580 nM |
| CCN(Cc1ccc(OC)cc1)CC1(N2CCN(C(=O)[C@H]3CN(C(C)C)C[C@@H]3c3ccc(Cl)cc3)CC2)CCCCC1 | 190 nM |  |  |
| CC(C)N1C[C@H](C(=O)N2CCN(C3(CNC(=O)Cc4ccccc4)CCCCC3)CC2)[C@@H](c2ccc(Cl)cc2)C1 | 510 nM |  |  |
| COCC(C)N1C[C@H](C(=O)N2CCN(C3(CNCc4ccccc4)CCCCC3)CC2)[C@@H](c2ccc(Cl)cc2)C1 (stereo not given in full) | 100 nM | 7% |  |
| CC(C)N1C[C@H](C(=O)N2CCN(C3(CNCc4ccc([N+](=O)[O-])cc4)CCCCC3)CC2)[C@@H](c2ccc(Cl)cc2)C1 | 52 nM |  |  |
| CC(C)N1C[C@H](C(=O)N2CCN(C3(CNCc4ccc(F)cc4)CCCCC3)CC2)[C@@H](c2ccc(Cl)cc2)C1 | 44 nM | 61% | 6600 nM |

| Compound | Ki [1] | Intrinsic activity [2] | EC50 [3] |
| --- | --- | --- | --- |
| COc1ccccc1CNCC1(N2CCN(C(=O)[C@H]3CN(C(C)C)C[C@@H]3c3ccc(Cl)cc3)CC2)CCCCC1 | 62 nM | 48% | 1000 nM |
| CC(C)N1C[C@H](C(=O)N2CCN(C3(CN)CCCCC3)CC2)[C@@H](c2ccc(Cl)cc2)C1 | 1200 nM |  |  |
| CC(C)N1C[C@H](C(=O)N2CCN(C3(CNS(=O)(=O)Cc4ccccc4)CCCCC3)CC2)[C@@H](c2ccc(Cl)cc2)C1 | 340 nM | 40% |  |
| Cc1c(CNCC2(N3CCN(C(=O)[C@H]4CN(C(C)C)C[C@@H]4c4ccc(Cl)cc4)CC3)CCCCC2)cnn1C | 11 nM | 43% | 50 nM |
| CCC(=O)N1C[C@H](C(=O)N2CCN(C3(CNCc4ccccc4)CCCCC3)CC2)[C@@H](c2ccc(Cl)cc2)C1 | 210 nM | 19% |  |
| CC(C)N1C[C@H](C(=O)N2CCN(C3(CN(C)Cc4ccncc4)CCCCC3)CC2)[C@@H](c2ccc(Cl)cc2)C1 | 750 nM |  |  |
| CSc1ccc(CNCC2(N3CCN(C(=O)[C@H]4CN(C(C)C)C[C@@H]4c4ccc(Cl)cc4)CC3)CCCCC2)cc1 | 27 nM |  |  |
| CC(C)N1C[C@H](C(=O)N2CCN(C3(CNCc4cccnc4)CCCCC3)CC2)[C@@H](c2ccc(Cl)cc2)C1 | 35 nM | 72% | 390 nM |
| CC(C)N1C[C@H](C(=O)N2CCN(C3(CNCc4cc5ccccc5n4C)CCCCC3)CC2)[C@@H](c2ccc(Cl)cc2)C1 | 1200 nM |  |  |
| CC(C)N1C[C@H](C(=O)N2CCN(C3(CNCc4ccccc4Cl)CCCCC3)CC2)[C@@H](c2ccc(Cl)cc2)C1 | 25 nM | 75% | 1300 nM |
| COC(=O)c1ccc(CNCC2(N3CCN(C(=O)[C@H]4CN(C(C)C)C[C@@H]4c4ccc(Cl)cc4)CC3)CCCCC2)cc1 | 32 nM | 21% |  |
| O=C([C@H]1CN(Cc2ccccc2)C[C@@H]1c1ccc(Cl)cc1)N1CCN(C2(CNCc3ccccc3)CCCCC2)CC1 | 140 nM | 1% |  |
| CC(=O)Nc1ccc(CNCC2(N3CCN(C(=O)[C@H]4CN(C(C)C)C[C@@H]4c4ccc(Cl)cc4)CC3)CCCCC2)cc1 | 29 nM | 27% | 190 nM |
| O=C([C@H]1CN(Cc2ccccc2)C[C@@H]1c1ccc(Cl)cc1)N1CCN(C2(CNCc3ccncc3)CCCCC2)CC1 | 200 nM |  |  |
| CC(C)N1C[C@H](C(=O)N2CCN(C3(CNCc4ccccc4)CCCCC3)CC2)[C@@H](c2ccc(Cl)cc2)C1 | 26 nM | 31% | 1100 nM |
| COc1ccc(CN(Cc2ccc(OC)cc2)CC2(N3CCN(C(=O)[C@H]4CN(C(C)C)C[C@@H]4c4ccc(Cl)cc4)CC3)CCCCC2)cc1 | 2800 nM |  |  |
| CC(C)N1C[C@H](C(=O)N2CCN(C3(CNCc4ncc[nH]4)CCCCC3)CC2)[C@@H](c2ccc(Cl)cc2)C1 | 560 nM | 69% | 230 nM |
| CC(C)N1C[C@H](C(=O)N2CCN(C3(CNCc4cncnc4)CCCCC3)CC2)[C@@H](c2ccc(Cl)cc2)C1 | 220 nM | 66% | 220 nM |
| CC(C)N1C[C@H](C(=O)N2CCN(C3(CNCc4ccc(Cl)cc4)CCCCC3)CC2)[C@@H](c2ccc(Cl)cc2)C1 | 90 nM | 29% | 4200 nM |
| CC(C)N1C[C@H](C(=O)N2CCN(C3(CNCc4c[nH]cn4)CCCCC3)CC2)[C@@H](c2ccc(Cl)cc2)C1 | 220 nM | 49% | 110 nM |
| CCN(Cc1ccncc1)CC1(N2CCN(C(=O)[C@H]3CN(C(C)C)C[C@@H]3c3ccc(Cl)cc3)CC2)CCCCC1 | 1300 nM |  |  |

| Compound | Ki [1] | Intrinsic activity [2] | EC50 [3] |
| --- | --- | --- | --- |
| CC(C)N1C[C@H](C(=O)N2CCN(C3(CNCc4ccc5c(c4)OCO5)CCCCC3)CC2)[C@@H](c2ccc(Cl)cc2)C1 | 8.3 nM | 7% |  |
| CC(C)N1C[C@H](C(=O)N2CCN(C3(CNCc4ccccc4OC(F)(F)F)CCCCC3)CC2)[C@@H](c2ccc(Cl)cc2)C1 | 110 nM |  |  |
| CC(C)CN(Cc1ccncc1)CC1(N2CCN(C(=O)[C@H]3CN(C(C)C)C[C@@H]3c3ccc(Cl)cc3)CC2)CCCCC1 | 2700 nM |  |  |
| CNCC(=O)N1C[C@H](C(=O)N2CCN(C3(CNCc4ccccc4)CCCCC3)CC2)[C@@H](c2ccc(Cl)cc2)C1 | 100 nM | 8% |  |
| CCC(=O)N1C[C@H](C(=O)N2CCN(C3(CNCc4ccncc4)CCCCC3)CC2)[C@@H](c2ccc(Cl)cc2)C1 | 3100 nM |  |  |
| CCCC(=O)N1C[C@H](C(=O)N2CCN(C3(CNCc4ccccc4)CCCCC3)CC2)[C@@H](c2ccc(Cl)cc2)C1 | 190 nM | 8% |  |
| CC(C)N1C[C@H](C(=O)N2CCN(C3(CNCc4nccn4C)CCCCC3)CC2)[C@@H](c2ccc(Cl)cc2)C1 | 390 nM | 31% |  |
| COc1ccc(CNCC2(N3CCN(C(=O)[C@H]4CN(C(C)C)C[C@@H]4c4ccc(Cl)cc4)CC3)CCCCC2)c(OC)c1 | 16 nM | 29% |  |
| CC(C)N1C[C@H](C(=O)N2CCN(C3(CNCc4ccccc4C(F)(F)F)CCCCC3)CC2)[C@@H](c2ccc(Cl)cc2)C1 | 140 nM |  |  |
| CC(C)C(=O)N1C[C@H](C(=O)N2CCN(C3(CNCc4ccccc4)CCCCC3)CC2)[C@@H](c2ccc(Cl)cc2)C1 | 210 nM | 47% |  |
| CS(=O)(=O)N1C[C@H](C(=O)N2CCN(C3(CNCc4ccncc4)CCCCC3)CC2)[C@@H](c2ccc(Cl)cc2)C1 | 3400 nM |  |  |
| CC(C)N1C[C@H](C(=O)N2CCN(C3(CNCCc4ccccn4)CCCCC3)CC2)[C@@H](c2ccc(Cl)cc2)C1 | 690 nM |  |  |
| CC(C)N1C[C@H](C(=O)N2CCN(C3(CNCc4ccc(C(F)(F)F)cc4)CCCCC3)CC2)[C@@H](c2ccc(Cl)cc2)C1 | 130 nM | 16% |  |
| O=C([C@H]1CNC[C@@H]1c1ccc(Cl)cc1)N1CCN(C2(CNCc3ccncc3)CCCCC2)CC1 | 2200 nM |  |  |
| CC(C)N1C[C@H](C(=O)N2CCN(C3(CNCc4cccc(F)c4)CCCCC3)CC2)[C@@H](c2ccc(Cl)cc2)C1 | 24 nM | 23% |  |
| CC(C)N1C[C@H](C(=O)N2CCN(C3(CNCC4CCCCC4)CCCCC3)CC2)[C@@H](c2ccc(Cl)cc2)C1 | 300 nM |  |  |
| COc1ccc(CN(CC2(N3CCN(C(=O)[C@H]4CN(C(C)C)C[C@@H]4c4ccc(Cl)cc4)CC3)CCCCC2)OC)cc1 | 1300 nM |  |  |
| CC(C)Oc1ccc(CNCC2(N3CCN(C(=O)[C@H]4CN(C(C)C)C[C@@H]4c4ccc(Cl)cc4)CC3)CCCCC2)cc1 | 2.1 nM | 6% |  |
| COCC(C)NCC1(N2CCN(C(=O)[C@H]3CN(C(C)C)C[C@@H]3c3ccc(Cl)cc3)CC2)CCCCC1 (stereo not given in full) | 310 nM |  |  |
| CC(=O)N1C[C@H](C(=O)N2CCN(C3(CNCc4ccccc4)CCCCC3)CC2)[C@@H](c2ccc(Cl)cc2)C1 | 190 nM | 13% |  |
